Reference: ChEMBL document CHEMBL6074641, “Polypharmacological Drug Design Guided by Integrating Phenotypic and Restricted Fragment Docking Strategies” (J Med Chem, 2024)
pIC50: −log10 of the molar value. Activity calls are given as the source filed them. The calls are words filed in the database; no cut-off is given here.

How the values were obtained:
Mus musculus [1] = test: Anti-alzheimer activity against 5 month old APP/PS1 transgenic mouse model assessed as improved cognitive ability at 10 mg/kg, po administered 4 times per week for 4 weeks; assay type: functional, organism-based
Mus musculus [2] = test: Anti-necroptosis activity in 3xTg mouse hippocampus assessed as reduction in pMLKL activation at 2 to 10 mg/kg, po; assay type: functional, organism-based; settings: dose 2-10 mg/kg
Mus musculus [3] = test: Anti-alzheimer activity against 5 month old APP/PS1 transgenic mouse model assessed as increase in searching frequency towards annulus at 10 mg/kg, po administered 4 times per week for 4 weeks; assay type: functional, organism-based
Mus musculus [4] = test: Anti-alzheimer activity in 8 month old 3xTg mouse model assessed as reversal of transcriptomic changes in Lamc2 at 10 mg/kg, po; assay type: functional, organism-based
[5] = target: T1, Receptor-interacting serine/threonine-protein kinase 1 (Homo sapiens) (UniProt Q13546); test: Inhibition of RIPK1 (unknown origin) at 1 uM
T1 sequence (whole entry): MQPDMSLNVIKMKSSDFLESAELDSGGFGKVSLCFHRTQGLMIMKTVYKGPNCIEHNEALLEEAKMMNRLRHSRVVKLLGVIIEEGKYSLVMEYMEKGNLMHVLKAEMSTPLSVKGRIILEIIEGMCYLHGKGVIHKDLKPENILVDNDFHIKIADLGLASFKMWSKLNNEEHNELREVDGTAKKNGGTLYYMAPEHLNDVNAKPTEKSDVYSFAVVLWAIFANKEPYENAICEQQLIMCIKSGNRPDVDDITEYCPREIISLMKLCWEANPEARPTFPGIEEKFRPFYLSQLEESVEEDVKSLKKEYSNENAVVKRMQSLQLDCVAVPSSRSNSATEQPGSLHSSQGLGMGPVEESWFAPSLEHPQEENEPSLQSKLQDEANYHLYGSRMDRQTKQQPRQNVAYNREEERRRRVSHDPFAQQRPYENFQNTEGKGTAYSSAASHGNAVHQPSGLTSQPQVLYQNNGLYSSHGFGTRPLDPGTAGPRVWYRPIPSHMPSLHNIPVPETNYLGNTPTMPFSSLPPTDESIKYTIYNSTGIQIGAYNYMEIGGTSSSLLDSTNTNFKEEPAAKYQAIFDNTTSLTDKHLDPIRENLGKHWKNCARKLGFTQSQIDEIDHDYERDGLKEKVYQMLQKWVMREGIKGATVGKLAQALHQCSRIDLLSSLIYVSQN

[6] = target: ALK tyrosine kinase receptor (Homo sapiens, UniProt Q9UM73, E1167A); test: Inhibition of ALK E1167A mutant (unknown origin) expressed in Escherichia coli BL21 (DE3)
Microglia [7] = test: Anti-necroptosis activity in LPS/zVAD stimulated mouse primary microglia overexpressed with MAP4K4 assessed as reversal of translucent cytoplasm by TEM analysis; assay type: functional, cell-based
Mus musculus [8] = test: Anti-alzheimer activity against 8 month old 3xTg mouse model assessed as increase in searching frequency towards annulus at 10 mg/kg, po administered 4 times per week for 4 weeks; assay type: functional, organism-based
[9] = target: ALK tyrosine kinase receptor (Homo sapiens, UniProt Q9UM73); test: Inhibition of recombinant ALK (1060 to end residues) (unknown origin) expressed in Escherichia coli […] using IGF1Rtide as substrate preincubated for 15 mins followed by substrate and ATP addition and measured after 90 mins by ADP-Glo luminescence […] assay
Chain of ALK tyrosine kinase receptor (Homo sapiens, UniProt Q9UM73) (Q9UM73 whole entry): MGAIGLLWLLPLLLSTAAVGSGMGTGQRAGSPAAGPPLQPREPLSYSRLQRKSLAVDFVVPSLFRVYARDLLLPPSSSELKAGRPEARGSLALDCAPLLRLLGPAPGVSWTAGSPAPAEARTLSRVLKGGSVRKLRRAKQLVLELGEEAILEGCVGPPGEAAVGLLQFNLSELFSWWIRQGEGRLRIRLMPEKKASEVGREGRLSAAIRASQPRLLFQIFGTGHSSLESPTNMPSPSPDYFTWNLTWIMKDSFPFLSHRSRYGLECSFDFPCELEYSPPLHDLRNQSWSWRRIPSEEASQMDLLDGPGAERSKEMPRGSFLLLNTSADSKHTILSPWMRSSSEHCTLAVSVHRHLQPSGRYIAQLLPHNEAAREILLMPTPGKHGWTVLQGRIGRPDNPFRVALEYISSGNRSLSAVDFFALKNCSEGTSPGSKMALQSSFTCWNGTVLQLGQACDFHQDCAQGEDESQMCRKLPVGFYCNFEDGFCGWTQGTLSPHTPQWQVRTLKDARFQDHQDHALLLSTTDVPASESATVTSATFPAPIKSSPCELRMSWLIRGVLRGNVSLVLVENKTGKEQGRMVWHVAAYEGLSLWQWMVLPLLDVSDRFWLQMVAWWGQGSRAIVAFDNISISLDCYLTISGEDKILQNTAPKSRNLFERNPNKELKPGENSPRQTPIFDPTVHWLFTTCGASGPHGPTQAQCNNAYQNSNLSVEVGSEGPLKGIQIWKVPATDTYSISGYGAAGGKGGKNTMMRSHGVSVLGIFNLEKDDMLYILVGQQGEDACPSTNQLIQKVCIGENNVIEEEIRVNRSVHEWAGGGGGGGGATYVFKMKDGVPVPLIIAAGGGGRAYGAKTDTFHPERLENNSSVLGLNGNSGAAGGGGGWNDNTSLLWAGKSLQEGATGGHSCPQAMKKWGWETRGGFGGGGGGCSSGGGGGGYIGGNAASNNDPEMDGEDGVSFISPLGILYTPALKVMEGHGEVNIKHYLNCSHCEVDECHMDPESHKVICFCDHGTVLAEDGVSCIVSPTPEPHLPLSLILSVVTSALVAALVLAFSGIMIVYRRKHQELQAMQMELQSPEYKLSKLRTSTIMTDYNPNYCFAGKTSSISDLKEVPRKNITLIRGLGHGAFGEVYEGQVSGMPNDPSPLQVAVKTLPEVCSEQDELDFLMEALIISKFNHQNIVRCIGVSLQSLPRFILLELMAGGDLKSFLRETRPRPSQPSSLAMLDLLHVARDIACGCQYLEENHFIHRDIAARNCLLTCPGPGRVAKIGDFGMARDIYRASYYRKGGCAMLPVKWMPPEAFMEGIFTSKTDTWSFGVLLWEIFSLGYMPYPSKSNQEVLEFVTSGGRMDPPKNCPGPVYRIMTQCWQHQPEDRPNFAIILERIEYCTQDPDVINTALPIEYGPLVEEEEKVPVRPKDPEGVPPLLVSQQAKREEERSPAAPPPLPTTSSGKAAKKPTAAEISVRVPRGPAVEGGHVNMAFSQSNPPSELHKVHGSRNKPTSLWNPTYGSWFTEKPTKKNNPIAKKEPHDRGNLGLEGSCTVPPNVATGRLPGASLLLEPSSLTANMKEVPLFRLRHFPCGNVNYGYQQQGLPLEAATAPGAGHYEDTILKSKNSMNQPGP

[10] = target: Receptor-interacting serine/threonine-protein kinase 1 (Mus musculus) (UniProt Q60855); test: Inhibition of RIPK1 activation in mouse BV-2 cells by Western blotting analysis; assay type: cell-based; settings: dose 4-100 nM
[11] = Anti-necroptosis activity in LPS/zVAD stimulated mouse primary microglia assessed as protection of microglia cells at 100 nM; assay type: functional
Mus musculus [12] = test: Anti-alzheimer activity in 8 month old 3xTg mouse model assessed as reversal of transcriptomic changes in Hba-a1 at 10 mg/kg, po; assay type: functional, organism-based
[13] = target: Mitogen-activated protein kinase kinase kinase kinase 4 (Homo sapiens, UniProt O95819); test: Inhibition of MAP4K4 (unknown origin) at 1 uM
Chain of Mitogen-activated protein kinase kinase kinase kinase 4 (O95819 2-1239 limits assumed): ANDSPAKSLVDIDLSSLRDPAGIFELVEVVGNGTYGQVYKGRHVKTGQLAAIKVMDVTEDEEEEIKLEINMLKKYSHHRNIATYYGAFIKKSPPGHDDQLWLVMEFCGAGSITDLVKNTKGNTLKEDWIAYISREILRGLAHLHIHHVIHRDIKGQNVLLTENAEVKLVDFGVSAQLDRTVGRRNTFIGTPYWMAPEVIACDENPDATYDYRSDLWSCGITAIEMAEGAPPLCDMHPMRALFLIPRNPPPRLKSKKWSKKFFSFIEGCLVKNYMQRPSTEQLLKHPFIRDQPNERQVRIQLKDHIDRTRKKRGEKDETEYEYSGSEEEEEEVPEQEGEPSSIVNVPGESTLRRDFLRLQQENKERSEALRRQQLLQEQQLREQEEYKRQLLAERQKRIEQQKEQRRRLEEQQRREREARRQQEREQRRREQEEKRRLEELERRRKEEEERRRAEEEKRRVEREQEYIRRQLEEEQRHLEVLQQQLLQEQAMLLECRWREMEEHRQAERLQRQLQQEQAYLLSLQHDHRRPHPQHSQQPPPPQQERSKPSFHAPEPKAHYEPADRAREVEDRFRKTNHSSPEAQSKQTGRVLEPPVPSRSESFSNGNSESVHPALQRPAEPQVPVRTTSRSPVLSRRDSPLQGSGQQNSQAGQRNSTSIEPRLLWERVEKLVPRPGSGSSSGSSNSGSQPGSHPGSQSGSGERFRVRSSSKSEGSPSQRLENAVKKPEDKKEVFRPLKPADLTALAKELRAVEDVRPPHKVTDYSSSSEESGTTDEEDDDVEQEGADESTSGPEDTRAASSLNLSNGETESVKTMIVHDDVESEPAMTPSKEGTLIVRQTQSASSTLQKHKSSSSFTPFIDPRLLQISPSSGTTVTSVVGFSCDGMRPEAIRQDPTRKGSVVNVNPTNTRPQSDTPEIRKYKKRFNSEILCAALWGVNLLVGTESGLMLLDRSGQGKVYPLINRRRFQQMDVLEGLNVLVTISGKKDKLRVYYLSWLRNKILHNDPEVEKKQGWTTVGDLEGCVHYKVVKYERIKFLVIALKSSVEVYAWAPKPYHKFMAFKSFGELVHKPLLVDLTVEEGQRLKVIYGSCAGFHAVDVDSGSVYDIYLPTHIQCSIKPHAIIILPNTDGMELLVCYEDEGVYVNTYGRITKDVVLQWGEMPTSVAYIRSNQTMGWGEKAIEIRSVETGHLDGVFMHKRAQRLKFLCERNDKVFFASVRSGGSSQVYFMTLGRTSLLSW

[14] = Cmax in C57BL/6 mouse brain at 10 mg/kg, po measured upto 24 hrs by LC-MS/MS analysis; assay type: ADME, organism-based
BV-2 [15] = test: Anti-inflammatory activity against LPS/zVAD treated mouse BV-2 cells assessed as decrease in TNFalpha release at 100 nM by ELISA; assay type: functional, cell-based
Mus musculus [16] = test: Anti-alzheimer activity against 8 month old 3xTg mouse model assessed as increase in beta-III tubulin expression at 10 mg/kg, po; assay type: functional, organism-based
BV-2 [17] = test: Anti-necroptosis activity in mouse BV-2 cells assessed as reduction in p65 expression at 100 nM by confocal microscopic analysis; assay type: functional, cell-based
Mus musculus [18] = test: Anti-alzheimer activity in 8 month old 3xTg mouse model assessed as reversal of transcriptomic changes in Plxnd1 at 10 mg/kg, po; assay type: functional, organism-based
Cytochrome P450 2D6 = Cytochrome P450 2D6 (Homo sapiens, UniProt P10635); test: Inhibition of CYP2D6 (unknown origin) using dextromethorphan as substrate incubated for 10 mins in presence of NADPH by LC-MS/MS analysis; assay type: ADME
Chain of Cytochrome P450 2D6 (P10635 whole entry): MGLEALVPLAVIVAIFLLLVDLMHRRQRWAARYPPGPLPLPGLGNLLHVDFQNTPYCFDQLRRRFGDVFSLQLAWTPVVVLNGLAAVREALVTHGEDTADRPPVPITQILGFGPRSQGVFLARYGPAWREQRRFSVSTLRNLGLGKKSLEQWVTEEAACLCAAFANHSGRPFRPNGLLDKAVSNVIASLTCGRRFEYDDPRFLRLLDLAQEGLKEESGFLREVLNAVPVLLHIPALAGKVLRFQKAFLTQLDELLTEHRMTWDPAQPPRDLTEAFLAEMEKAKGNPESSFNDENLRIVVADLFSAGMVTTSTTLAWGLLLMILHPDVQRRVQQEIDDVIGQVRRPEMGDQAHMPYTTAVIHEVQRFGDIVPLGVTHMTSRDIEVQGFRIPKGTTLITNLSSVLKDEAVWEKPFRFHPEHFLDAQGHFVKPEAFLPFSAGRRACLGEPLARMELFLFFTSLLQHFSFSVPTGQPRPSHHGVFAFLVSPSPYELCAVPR

Microglia [19] = test: Anti-necroptosis activity in LPS/zVAD stimulated mouse primary microglia overexpressed with ALK assessed as reversal of mitochondrial swelling by TEM analysis; assay type: functional, cell-based
Mus musculus [20] = test: Anti-alzheimer activity against 5 month old APP/PS1 transgenic mouse model assessed as decrease in anxiety level at 2 to 10 mg/kg, po administered 4 times per week for 4 weeks; assay type: functional, organism-based; settings: dose 2-10 mg/kg
Microglia [21] = test: Anti-necroptosis activity in LPS/zVAD stimulated mouse primary microglia overexpressed with MAP4K4 assessed as reversal of severe membrane disruption by TEM analysis; assay type: functional, cell-based
[22] = Tmax in C57BL/6 mouse brain at 10 mg/kg, po measured upto 24 hrs by LC-MS/MS analysis; assay type: ADME, organism-based
BV-2 [23] = test: Anti-necroptosis activity in mouse BV-2 cells at 10 uM preincubated with LPS for 11 hrs followed by compound addition for 1 hr and exposed to zVAD-fmk for another 24 hrs by Cellcounting-Lite 2.0 luminescent cell viability assay; assay type: functional, cell-based; settings: time 25.0 hrs
[24] = target: Voltage-gated inwardly rectifying potassium channel KCNH2 (Homo sapiens, UniProt Q12809); test: Inhibition of human ERG expressed in CHO cells by Qpatch clamp method; assay type: toxicity, cell-based
Chain of Voltage-gated inwardly rectifying potassium channel KCNH2 (Q12809 whole entry): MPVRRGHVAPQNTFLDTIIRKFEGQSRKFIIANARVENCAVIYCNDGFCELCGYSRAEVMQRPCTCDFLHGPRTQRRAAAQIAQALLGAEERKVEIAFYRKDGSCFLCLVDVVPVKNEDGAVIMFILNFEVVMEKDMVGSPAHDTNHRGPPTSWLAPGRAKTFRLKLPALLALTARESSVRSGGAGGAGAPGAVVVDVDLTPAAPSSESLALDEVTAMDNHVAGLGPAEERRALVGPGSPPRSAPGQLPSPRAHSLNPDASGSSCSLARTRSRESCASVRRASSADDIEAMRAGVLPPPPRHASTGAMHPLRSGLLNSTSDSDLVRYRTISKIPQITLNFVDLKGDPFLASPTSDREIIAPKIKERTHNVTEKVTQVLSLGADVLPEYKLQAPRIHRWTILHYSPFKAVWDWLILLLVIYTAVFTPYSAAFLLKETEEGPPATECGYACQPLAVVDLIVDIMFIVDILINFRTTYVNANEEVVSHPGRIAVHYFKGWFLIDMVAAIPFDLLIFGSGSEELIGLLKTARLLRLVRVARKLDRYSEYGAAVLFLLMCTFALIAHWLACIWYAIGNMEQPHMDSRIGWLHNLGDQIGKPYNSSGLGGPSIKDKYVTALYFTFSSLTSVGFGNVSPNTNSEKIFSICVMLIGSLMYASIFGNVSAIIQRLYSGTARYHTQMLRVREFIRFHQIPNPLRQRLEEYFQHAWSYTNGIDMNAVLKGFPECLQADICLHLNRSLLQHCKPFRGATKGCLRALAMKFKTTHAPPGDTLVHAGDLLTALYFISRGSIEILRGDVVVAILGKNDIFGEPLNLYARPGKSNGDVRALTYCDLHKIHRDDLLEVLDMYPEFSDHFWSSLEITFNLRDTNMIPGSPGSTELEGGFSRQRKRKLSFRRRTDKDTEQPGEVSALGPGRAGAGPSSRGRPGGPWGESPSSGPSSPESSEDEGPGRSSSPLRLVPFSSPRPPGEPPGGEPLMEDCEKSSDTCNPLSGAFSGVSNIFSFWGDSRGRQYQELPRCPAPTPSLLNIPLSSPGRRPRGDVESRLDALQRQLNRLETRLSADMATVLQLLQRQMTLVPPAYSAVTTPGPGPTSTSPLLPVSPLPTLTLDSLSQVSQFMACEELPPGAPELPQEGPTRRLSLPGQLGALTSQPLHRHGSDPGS

Mus musculus [25] = test: Anti-alzheimer activity against 8 month old 3xTg mouse model assessed as reduction in p-Tau181 content at 2 to 10 mg/kg, po; assay type: functional, organism-based; settings: dose 2-10 mg/kg
[26] = Cmax in C57BL/6 mouse plasma at 10 mg/kg, po measured upto 24 hrs by LC-MS/MS analysis; assay type: ADME, organism-based
Mus musculus [27] = test: Downregulation of ALK phosphorylation in 3xTg mouse hippocampus at 2 to 10 mg/kg, po by immunohistochemistry analysis; assay type: functional, organism-based; settings: dose 2-10 mg/kg
Cytochrome P450 3A5 = Cytochrome P450 3A5 (Homo sapiens, UniProt P20815); test: Inhibition of CYP3A5 (unknown origin) using midazolam as substrate incubated for 10 mins in presence of NADPH by LC-MS/MS analysis; assay type: ADME
Chain of Cytochrome P450 3A5 (P20815 whole entry): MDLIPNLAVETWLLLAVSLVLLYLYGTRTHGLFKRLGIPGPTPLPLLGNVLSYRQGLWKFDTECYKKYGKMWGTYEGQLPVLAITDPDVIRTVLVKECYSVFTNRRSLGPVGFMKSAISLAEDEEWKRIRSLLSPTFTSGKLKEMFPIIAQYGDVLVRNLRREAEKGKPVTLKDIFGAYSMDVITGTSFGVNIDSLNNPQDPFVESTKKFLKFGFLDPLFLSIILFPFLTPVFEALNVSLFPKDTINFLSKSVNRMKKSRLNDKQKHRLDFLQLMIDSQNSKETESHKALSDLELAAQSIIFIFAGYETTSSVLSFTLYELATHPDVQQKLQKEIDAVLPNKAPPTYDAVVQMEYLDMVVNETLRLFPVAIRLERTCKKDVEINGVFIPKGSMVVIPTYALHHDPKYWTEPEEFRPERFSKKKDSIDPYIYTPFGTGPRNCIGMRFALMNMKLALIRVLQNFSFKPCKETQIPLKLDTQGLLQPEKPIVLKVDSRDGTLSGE

Microglia [28] = test: Anti-necroptosis activity in LPS/zVAD stimulated mouse primary microglia overexpressed with MAP4K4 assessed as reversal of mitochondrial swelling by TEM analysis; assay type: functional, cell-based

inhibition [5]: Active | pIC50 [6]: 5.35 | inhibition [10]: Dose-dependent-effect | inhibition [13]: Active | Cmax [14]: 290 ng/mL | pIC50 (Cytochrome P450 2D6): < 5.00 | Tmax [22]: 5.97 h | Cmax [26]: 1180 ng/mL | pIC50 (Cytochrome P450 3A5): < 5.00
Structure (SMILES): Cc1cc(F)cc(Nc2ncc(Nc3ccc(SC(F)(F)F)cc3)cc2C(N)=O)c1
Activity (Mus musculus [1]): Active | Activity (Mus musculus [2]): Active | Activity (Mus musculus [3]): Active | Activity (Mus musculus [4]): Active | Activity (Microglia [7]): inactive | Activity (Mus musculus [8]): Active | pIC50 [9]: 6.21 | Activity [11]: 100% | Activity (Mus musculus [12]): Active | Activity (BV-2 [15]): Active | Activity (Mus musculus [16]): Active | Activity (BV-2 [17]): Active | Activity (Mus musculus [18]): Active | Activity (Microglia [19]): inactive | Activity (Mus musculus [20]): Active | Activity (Microglia [21]): inactive | Activity (BV-2 [23]): Active | pIC50 [24]: < 4.70 | Activity (Mus musculus [25]): Active | Activity (Mus musculus [27]): Active; Activity More Potent Than Nec-1 | Activity (Microglia [28]): inactive
